From patent publication US7348300B2, “Acetylenic diol ethylene oxide/propylene oxide adducts and processes for their manufacture” (Air Products and Chemicals, Inc., priority 1999, dated 2008)
Like-named read-outs stand apart in the source and are kept apart here.

Columns and labels:
[1] = Ross-Miles foam test based upon ASTM D 1173-53; format: physicochemical; conditions: 0.1 wt % solution
Protocol: In this test, a 0.1 wt % solution of the surfactant is added from an elevated foam pipette to a foam receiver containing the same solution. The foam height is measured at the completion of the addition (“Initial Foam Height”) and the time required for the foam to dissipate is recorded (“Time to 0 Foam”). This test provides a comparison between the foaming characteristics of various surfactant solutions. In general, in coatings, inks, and agricultural formulations, foam is undesirable because is complicates handling and can lead to coating and print defects, and to inefficient application of agricultural materials.

[2] = Dynamic surface tension of aqueous solutions, maximum bubble pressure method
Source text: In the following Examples dynamic surface tension data were obtained for aqueous solutions of various compounds using the maximum bubble pressure method at bubble rates from 0.1 bubbles/second (b/s) to 20 b/s. […] In practical terms, high bubble rates correspond to high printing speeds in lithographic printing, high spray or roller velocities in coating applications, and rapid application rates for agricultural products.
This value is a measure of the efficiency of a surfactant.
The critical aggregation concentrations (solubility limit or critical micelle concentration) were determined by intersection of the linear portion of a surface tension/ In concentration curve with the limiting surface tension as is described in many textbooks. […]
Process solutions containing 0.1 weight percent of a surfactant derived from 2,5,8,11-tetramethyl-6-dodecyne-5,8-diol or containing a fluorosurfactant, potassium perfluorooctane carboxylate provided by 3M of […]. were prepared in order to compare the equilibrium surface tension (EST) and dynamic surface tension (DST). The EST for both solutions was measured using the Wilhemy plate method on a […] manufactured by Kruss, Inc. of Charlotte, N.C. The DST of each process solution was measured via the maximum bubble pressure method.

[3] = Equilibrium surface tension, Wilhemy plate method; format: physicochemical; conditions: 0.1 wt %
Protocol: Process solutions containing 0.1 weight percent of a surfactant derived from 2,5,8,11-tetramethyl-6-dodecyne-5,8-diol or containing a fluorosurfactant, potassium perfluorooctane carboxylate provided by 3M of St. Louis, Mo. were prepared in order to compare the equilibrium surface tension (EST) and dynamic surface tension (DST). The EST for both solutions was measured using the Wilhemy plate method on a Kruss BP3 bubble pressure tensiometer manufactured by Kruss, Inc. of Charlotte, N.C.

Row | Molecule | RM Foam initial (Initial Foam Height) [1] [cm] | RM Foam t to 0 (Time to 0 Foam) [1] [s] | Sol Limit / critical aggregation concentration (CAG) [2] [wt %] | RM Foam, foam height after 5 minutes [1] [cm] | Sol Limit / critical aggregation concentration (CAG) ([2]; solubility limit or critical micelle concentration in water) | EST [3] [dyne/cm]
1 | 3.5 mole ethoxylate of 2,4,7,9-tetramethyl-5-decyne-4,7-diol capped with 2 moles of propylene oxide [Example 3] | 1.0 | 10 | 0.21 |  |  | 
2 | 10 mole EO/2 mole PO block derivative of 2,4,7,9-tetramethyl-5-decyne-4,7-diol [Example 5] | 2.1 |  |  | 1.3 | (0.78) wt % | 
3 | O=C([O-])C(F)(F)C(F)(F)C(F)(F)C(F)(F)C(F)(F)C(F)(F)C(F)(F)C(F)(F)F.[K+] [Fluorosurfactant, potassium perfluorooctane carboxylate, reference compound] |  |  |  |  |  | 21.2
